Measurements reported in ChEMBL document CHEMBL1157845, “Structure-activity relationship of new anti-tuberculosis agents derived from oxazoline and oxazole benzyl esters” (Eur J Med Chem, 2010).
pIC50: −log10 of the molar value. ≈ marks a conversion by molar mass, not a printed value. Calls of active or inactive are those of the source. Unless noted, the calls are words filed in the database; no cut-off is given here.

What was measured:
Colletotrichum = assay: Antifungal activity against Glomerella; type: functional, organism-based
[1] = tested on: Mycolicibacterium fortuitum; assay: Antimycobacterial activity against Mycobacterium fortuitum B; type: functional, organism-based
Liver microsomes = assay: Metabolic stability in Sprague-Dawley rat microsomes assessed as compound remaining after 15 mins by HPLC analysis; type: ADME, Microsome; settings: 0.25 h
[2] = tested on: Mycolicibacterium fortuitum; assay: Antimycobacterial activity against Mycobacterium fortuitum B by agar diffusion assay; type: functional, organism-based
Vero = assay: Cytotoxicity against african green monkey Vero cells by colorimetric assay; type: cell-based; settings: Chlorocebus sabaeus
Bacillus subtilis = assay: Antibacterial activity against Bacillus subtilis ATCC 6633; type: functional, organism-based
Escherichia coli = assay: Antibacterial activity against Escherichia coli SG 458; type: functional, organism-based
Proteus vulgaris = assay: Antibacterial activity against Proteus vulgaris OX 19; type: functional, organism-based
[3] = tested on: Mycobacterium tuberculosis; assay: Antimycobacterial activity against Mycobacterium tuberculosis H37Rv ATCC 27294 in GAS medium after 1 week by microplate alamar blue assay; type: functional; settings: H37Rv ATCC 27294, 168 h
Mycolicibacterium vaccae [4] = assay: Antimycobacterial activity against Mycobacterium vaccae 10670 by agar diffusion assay; type: functional, organism-based
Mycolicibacterium aurum [5] = assay: Antimycobacterial activity against Mycobacterium aurum DSM 43536; type: functional, organism-based
Mycobacterium avium [6] = assay: Antimycobacterial activity against Mycobacterium avium MAC 100; type: functional, organism-based
[7] = Chemical stability in simulated gastric fluid assessed as compound remaining after 2 hrs by HPLC analysis; type: physicochemical; settings: simulated gi fluid
[8] = tested on: Mycobacterium tuberculosis; assay: Antimycobacterial activity against Mycobacterium tuberculosis H37Rv ATCC 27294 in GAST medium after 1 week by microplate alamar blue assay; type: functional; settings: H37Rv ATCC 27294, 168 h
Mus musculus [9] = assay: Toxicity in mouse assessed as behavioral change at 100 mg/kg, po qd for 5 days followed by 2 days rest and 200 mg/kg, po qd for 5 days; type: organism-based; settings: in vivo
[10] = tested on: Mycobacterium tuberculosis; assay: Antimycobacterial activity against Mycobacterium tuberculosis Erdman infected in BALB/c mouse assessed as reduction of bacterial load at 200 mg/kg, po qd for 5 days per week administered 60 days after infection measured after 85 days post infection; type: functional, organism-based; set-up: dose 200 mg/kg
[11] = tested on: Sporobolomyces salmonicolor; assay: Antimicrobial activity against Sporobolomyces salmonicolor SBUG 549; type: functional, organism-based
Mus musculus [12] = assay: Toxicity in mouse assessed as change in gross appearance at 100 mg/kg, po qd for 5 days followed by 2 days rest and 200 mg/kg, po qd for 5 days; type: organism-based; settings: in vivo
Candida albicans = assay: Antifungal activity against Candida albicans; type: functional, organism-based
Mycolicibacterium vaccae [13] = assay: Antimycobacterial activity against Mycobacterium vaccae 10670; type: functional, organism-based
Mycolicibacterium aurum [14] = assay: Antimycobacterial activity against Mycobacterium aurum SB 66; type: functional, organism-based
Mycobacterium avium [15] = assay: Antimycobacterial activity against Mycobacterium avium MAC 101; type: functional, organism-based
Mycobacterium avium [16] = assay: Antimycobacterial activity against Mycobacterium avium MAC 108; type: functional, organism-based
Micrococcus luteus = assay: Antibacterial activity against Micrococcus luteus ATCC 10240; type: functional, organism-based
Staphylococcus aureus = assay: Antibacterial activity against Staphylococcus aureus SG 511; type: functional, organism-based
Mycobacterium avium [17] = assay: Antimycobacterial activity against Mycobacterium avium MAC 116; type: functional, organism-based
[18] = tested on: Mycolicibacterium smegmatis; assay: Antimycobacterial activity against Mycobacterium smegmatis SG 987; type: functional, organism-based
Mus musculus [19] = assay: Toxicity in mouse assessed as change in body weight at 100 mg/kg, po qd for 5 days followed by 2 days rest and 200 mg/kg, po qd for 5 days; type: organism-based; settings: in vivo
Mycobacterium avium [20] = assay: Antimycobacterial activity against Mycobacterium avium MAC 109; type: functional, organism-based
[21] = tested on: Mycobacterium tuberculosis; assay: Antimycobacterial activity against Mycobacterium tuberculosis H37Rv ATCC 27294 incubated 10 days under anaerobic condition measured after 24 hrs recovery in air by luciferase based low oxygen recovery assay; type: functional

Question: What does the source list for `O=C(OCc1ccccc1)c1coc(-c2ccccc2OCc2ccccc2)n1`?
Answer: Activity (Colletotrichum): inactive; Activity [1]: inactive; Stability (Liver microsomes): 13%; Activity [2]: Active; pIC50 (Vero): < 3.89; Activity (Bacillus subtilis): inactive; Activity (Escherichia coli): inactive; Activity (Proteus vulgaris): inactive; MIC [3]: 62.6 µM (≈ 24.1 µg/mL); Activity (Mycolicibacterium vaccae [4]): Active; Activity (Mycolicibacterium aurum [5]): inactive; Activity (Mycobacterium avium [6]): inactive; Stability [7]: 4.2%; MIC [8]: 10.3 µM (≈ 3.97 µg/mL); Activity (Mus musculus [9]): Non-toxic; Activity [10]: inactive; Activity [11]: inactive; Activity (Mus musculus [12]): Non-toxic; Activity (Candida albicans): inactive; Activity (Mycolicibacterium vaccae [13]): inactive; Activity (Mycolicibacterium aurum [14]): inactive; Activity (Mycobacterium avium [15]): inactive; Activity (Mycobacterium avium [16]): inactive; Activity (Micrococcus luteus): inactive; Activity (Staphylococcus aureus): inactive; Activity (Mycobacterium avium [17]): inactive; Activity [18]: inactive; Activity (Mus musculus [19]): Non-toxic; Activity (Mycobacterium avium [20]): inactive

Question: For `COc1ccc(-c2nc(C(=O)OCc3ccccc3)co2)cc1`, which Activity (Colletotrichum) is on record?
Answer: inactive

Question: What about the Activity [1] of the same molecule?
Answer: inactive

Question: What about the Stability (Liver microsomes) of the same molecule?
Answer: 14%

Question: And the Activity [2]?
Answer: Active

Question: And the pIC50 (Vero)?
Answer: < 3.89

Question: And the Activity (Bacillus subtilis)?
Answer: inactive

Question: And the Activity (Escherichia coli)?
Answer: inactive

Question: What about the Activity (Proteus vulgaris) of the same molecule?
Answer: inactive

Question: And the MIC [3]?
Answer: 1.72 µM (≈ 0.532 µg/mL)

Question: And the Activity (Mycolicibacterium vaccae [4])?
Answer: Active

Question: And the Activity (Mycolicibacterium aurum [5])?
Answer: inactive

Question: What about the Activity (Mycobacterium avium [6]) of the same molecule?
Answer: inactive

Question: What about the Stability [7] of the same molecule?
Answer: 0.4%

Question: What about the MIC [8] of the same molecule?
Answer: 1.8 µM (≈ 0.557 µg/mL)

Question: And the Activity (Mus musculus [9])?
Answer: Non-toxic

Question: What about the Activity [10] of the same molecule?
Answer: inactive

Question: And the Activity [11]?
Answer: inactive

Question: And the Activity (Mus musculus [12])?
Answer: Non-toxic

Question: What about the Activity (Candida albicans) of the same molecule?
Answer: inactive

Question: What about the Activity (Mycolicibacterium vaccae [13]) of the same molecule?
Answer: inactive

Question: And the Activity (Mycolicibacterium aurum [14])?
Answer: inactive

Question: What about the Activity (Mycobacterium avium [15]) of the same molecule?
Answer: inactive

Question: What about the Activity (Mycobacterium avium [16]) of the same molecule?
Answer: inactive

Question: What about the Activity (Micrococcus luteus) of the same molecule?
Answer: inactive

Question: And the Activity (Staphylococcus aureus)?
Answer: inactive

Question: What about the Activity (Mycobacterium avium [17]) of the same molecule?
Answer: inactive

Question: What about the Activity [18] of the same molecule?
Answer: inactive

Question: And the Activity (Mus musculus [19])?
Answer: Non-toxic

Question: What about the Activity (Mycobacterium avium [20]) of the same molecule?
Answer: inactive

Question: With `COc1ccc(-c2nc(C(=O)OCc3ccccc3)co2)cc1Cl` as the molecule, how does the pIC50 (Vero) read?
Answer: < 3.89

Question: What about the MIC [3] of the same molecule?
Answer: 2.35 µM (≈ 0.808 µg/mL)

Question: What about the MIC [8] of the same molecule?
Answer: 5.33 µM (≈ 1.83 µg/mL)

Question: What about the Activity [10] of the same molecule?
Answer: inactive

Question: With `O=C(OCc1ccccc1)[C@@H]1COC(c2ccc([N+](=O)[O-])cc2)=N1` as the molecule, how does the pIC50 (Vero) read?
Answer: < 3.89

Question: And the MIC [3]?
Answer: 30.6 µM (≈ 9.99 µg/mL)

Question: And the MIC [8]?
Answer: 7.59 µM (≈ 2.48 µg/mL)

Question: And the Activity [10]?
Answer: inactive

Question: With `O=C(OCc1ccccc1)c1coc(-c2ccc([N+](=O)[O-])cc2F)n1` as the molecule, how does the pIC50 (Vero) read?
Answer: < 3.89

Question: What about the MIC [3] of the same molecule?
Answer: 0.7 µM (≈ 0.24 µg/mL)

Question: And the MIC [8]?
Answer: 1.65 µM (≈ 0.565 µg/mL)

Question: What about the Activity [10] of the same molecule?
Answer: inactive

Question: What about the MIC [21] of the same molecule?
Answer: 11.6 µM (≈ 3.97 µg/mL)

Question: With `O=C(OCc1ccccc1)[C@@H]1COC(c2cccc(Cl)c2)=N1` as the molecule, how does the pIC50 (Vero) read?
Answer: < 3.89

Question: And the MIC [3]?
Answer: 11.6 µM (≈ 3.66 µg/mL)

Question: What about the MIC [8] of the same molecule?
Answer: 1.8 µM (≈ 0.568 µg/mL)

Question: What about the Activity [10] of the same molecule?
Answer: inactive

Question: With `O=C(OCc1ccccc1)c1coc(-c2cncc(Br)c2)n1` as the molecule, how does the pIC50 (Vero) read?
Answer: < 3.89

Question: And the MIC [3]?
Answer: 2.37 µM (≈ 0.851 µg/mL)

Question: What about the MIC [8] of the same molecule?
Answer: 2.24 µM (≈ 0.805 µg/mL)

Question: What about the Activity [10] of the same molecule?
Answer: inactive

Question: What about the MIC [21] of the same molecule?
Answer: > 128 µM

Question: With `O=C(OCc1ccccc1)c1coc(-c2cccc(F)c2)n1` as the molecule, how does the pIC50 (Vero) read?
Answer: < 3.89

Question: What about the MIC [3] of the same molecule?
Answer: 0.91 µM (≈ 0.271 µg/mL)

Question: What about the MIC [8] of the same molecule?
Answer: 1.42 µM (≈ 0.422 µg/mL)

Question: And the Activity [10]?
Answer: inactive

Question: What does the source list for `O=C(OCc1ccccc1)[C@@H]1COC(c2ccc([N+](=O)[O-])c(F)c2)=N1`?
Answer: pIC50 (Vero): < 3.89; MIC [3]: 30.2 µM (≈ 10.4 µg/mL); MIC [8]: 3.68 µM (≈ 1.27 µg/mL); Activity [10]: inactive; MIC [21]: 59 µM (≈ 20.3 µg/mL)

Question: With `O=C(OCc1ccccc1)c1coc(-c2ccc(Br)nc2)n1` as the molecule, how does the pIC50 (Vero) read?
Answer: < 3.89

Question: And the MIC [3]?
Answer: 2.54 µM (≈ 0.912 µg/mL)

Question: And the MIC [8]?
Answer: 1.84 µM (≈ 0.661 µg/mL)

Question: What about the Activity [10] of the same molecule?
Answer: inactive

Question: And the MIC [21]?
Answer: 25.1 µM (≈ 9.02 µg/mL)

Question: With `COc1ccc(CNC(=O)c2coc(-c3ccc([N+](=O)[O-])cc3)n2)cc1OC` as the molecule, how does the pIC50 (Vero) read?
Answer: < 3.89

Question: What about the MIC [3] of the same molecule?
Answer: 35.8 µM (≈ 13.7 µg/mL)

Question: And the MIC [8]?
Answer: 49.5 µM (≈ 19 µg/mL)

Question: What about the Activity [10] of the same molecule?
Answer: inactive

Question: With `O=C(OCc1ccccc1)c1coc(-c2ccc([N+](=O)[O-])c(F)c2)n1` as the molecule, how does the pIC50 (Vero) read?
Answer: < 3.89

Question: What about the MIC [3] of the same molecule?
Answer: 35.4 µM (≈ 12.1 µg/mL)

Question: What about the MIC [8] of the same molecule?
Answer: 2.66 µM (≈ 0.91 µg/mL)

Question: And the Activity [10]?
Answer: inactive

Question: For `O=C(OCc1ccccc1)c1coc(-c2cccnc2S(=O)(=O)c2ccccc2)n1`, which MIC [3] is on record?
Answer: 66.2 µM (≈ 27.8 µg/mL)

Question: And the MIC [8]?
Answer: > 128 µM

Question: What about the Activity [10] of the same molecule?
Answer: inactive

Question: With `COc1ccc(C2=N[C@H](C(=O)OCc3ccccc3)CO2)cc1` as the molecule, how does the pIC50 (Vero) read?
Answer: < 3.89

Question: What about the MIC [3] of the same molecule?
Answer: 26.1 µM (≈ 8.13 µg/mL)

Question: And the MIC [8]?
Answer: 2.29 µM (≈ 0.713 µg/mL)

Question: And the Activity [10]?
Answer: inactive
